{"source": "ChEMBL document CHEMBL4602605", "about": "“Fluoroquinolones structural and medicinal developments (2013-2018): Where are we now?” (Bioorg Med Chem, 2019)", "key": {"[1]": {"test_system": "Klebsiella pneumoniae", "assay": "Antimicrobial activity against Klebsiella pneumoniae incubated overnight by broth microdilution method", "type": "functional"}, "[2]": {"test_system": "Staphylococcus aureus", "assay": "Antimicrobial activity against methicillin-resistant Staphylococcus aureus incubated overnight by broth microdilution method", "type": "functional"}, "[3]": {"test_system": "Mycobacterium avium", "assay": "Antimicrobial activity against Mycobacterium avium incubated for 10 days by microbroth dilution method", "type": "functional", "conditions": "240 h"}, "[4]": {"test_system": "Mycobacterium tuberculosis", "assay": "Antimicrobial activity against Mycobacterium tuberculosis H37Rv incubated for 10 days by microbroth dilution method", "type": "functional", "conditions": "240 h"}, "[5]": {"test_system": "Mycolicibacter terrae", "assay": "Antimicrobial activity against Mycobacterium terrae incubated for 10 days by microbroth dilution method", "type": "functional", "conditions": "240 h"}, "[6]": {"test_system": "Escherichia coli", "assay": "Antimicrobial activity against penicillin-resistant Escherichia coli at < 1 ug/ml relative to control", "type": "functional"}, "[7]": {"test_system": "Yersinia pseudotuberculosis", "assay": "Antimicrobial activity against Yersinia pseudotuberculosis ATCC 911 incubated for 18 to 24 hrs by microbroth dilution method", "type": "functional"}, "[8]": {"test_system": "Pseudomonas aeruginosa", "assay": "Antimicrobial activity against Pseudomonas aeruginosa ATCC 43288 incubated for 18 to 24 hrs by microbroth dilution method", "type": "functional"}, "[9]": {"test_system": "Enterococcus faecalis", "assay": "Antimicrobial activity against Enterococcus faecalis ATCC 29212 incubated for 18 to 24 hrs by microbroth dilution method", "type": "functional"}, "[10]": {"test_system": "Mycolicibacterium smegmatis", "assay": "Antimicrobial activity against Mycobacterium smegmatis ATCC 607 incubated for 48 to 72 hrs by microbroth dilution method", "type": "functional"}, "[11]": {"test_system": "Staphylococcus aureus", "assay": "Antimicrobial activity against Staphylococcus aureus ATCC 25923 incubated for 18 to 24 hrs by microbroth dilution method", "type": "functional"}, "[12]": {"test_system": "Bacillus cereus", "assay": "Antimicrobial activity against Bacillus cereus 709 Roma incubated for 18 to 24 hrs by microbroth dilution method", "type": "functional"}, "[13]": {"test_system": "Escherichia coli", "assay": "Antimicrobial activity against Escherichia coli ATCC 25922 incubated for 18 to 24 hrs by microbroth dilution method", "type": "functional"}, "[14]": {"test_system": "PC-3", "assay": "Growth inhibition of human PC3 cells by MTT assay", "type": "functional, cell-based"}, "[15]": {"test_system": "Mycolicibacterium smegmatis", "assay": "Antimicrobial activity against Mycobacterium smegmatis incubated for 30 to 32 hrs by spectrophotometry based assay", "type": "functional"}, "[16]": {"test_system": "Candida albicans", "assay": "Antifungal activity against Candida albicans after overnight incubation by agar well diffusion method", "type": "functional"}, "[17]": {"test_system": "Aspergillus clavatus", "assay": "Antifungal activity against Aspergillus clavatus after overnight incubation by agar well diffusion method", "type": "functional"}, "[18]": {"test_system": "Staphylococcus aureus", "assay": "Antimicrobial activity against Staphylococcus aureus ATCC 25923 by CLSI method", "type": "functional"}, "[19]": {"test_system": "Escherichia coli", "assay": "Antimicrobial activity against Escherichia coli ATCC 25922 by CLSI method", "type": "functional"}, "[20]": {"test_system": "Escherichia coli", "assay": "Antimicrobial activity against Escherichia coli ATCC 35218 incubated for 24 hrs by serial dilution method", "type": "functional", "conditions": "ATCC 35218, 24 h"}, "[21]": {"test_system": "Moraxella catarrhalis", "assay": "Antimicrobial activity against Moraxella catarrhalis ATCC 25238 incubated for 24 hrs by serial dilution method", "type": "functional", "conditions": "ATCC 25238, 24 h"}, "[22]": {"test_system": "HCT-116", "assay": "Growth inhibition of human HCT116 cells at 10 uM incubated for 48 hrs by MTT assay relative to control", "type": "functional", "conditions": "HCT-116, 48 h, read-out: GI"}, "[23]": {"test_system": "HeLa", "assay": "Growth inhibition of human HeLa cells at 10 uM incubated for 48 hrs by MTT assay relative to control", "type": "functional", "conditions": "read-out: GI"}, "[24]": {"test_system": "A549", "assay": "Growth inhibition of human A549 cells at 10 uM incubated for 48 hrs by MTT assay relative to control", "type": "functional", "conditions": "A549, 48 h, read-out: GI"}, "[25]": {"test_system": "Enterococcus faecalis", "assay": "Antimicrobial activity against Enterococcus faecalis ATCC 29212 incubated for 24 hrs by serial dilution method", "type": "functional", "conditions": "ATCC 29212, 24 h"}, "[26]": {"test_system": "Staphylococcus aureus", "assay": "Antimicrobial activity against methicillin-resistant Staphylococcus aureus ATCC 33591 incubated for 24 hrs by serial dilution method", "type": "functional", "conditions": "ATCC 33591, 24 h"}, "[27]": {"test_system": "PANC-1", "assay": "Growth inhibition of human PANC1 cells at 10 uM incubated for 48 hrs by MTT assay", "type": "functional", "conditions": "PANC-1, 48 h, read-out: GI"}, "[28]": {"test_system": "Klebsiella pneumoniae", "assay": "Antimicrobial activity against Klebsiella pneumoniae ATCC 35657 incubated for 24 hrs by serial dilution method", "type": "functional", "conditions": "ATCC 35657, 24 h"}, "[29]": {"test_system": "Staphylococcus aureus", "assay": "Antimicrobial activity against methicillin-susceptible Staphylococcus aureus ATCC 29213 incubated for 24 hrs by serial dilution method", "type": "functional", "conditions": "ATCC 29213, 24 h"}}}
{"compound": "C[C@H]1Cn2cc(C(=O)NCCC(=O)NCCC[C@@H]3NC(=O)[C@H](CCCNC(=N)N)NC(=O)[C@H](CCCNC(=N)N)NC(=O)[C@H](CCCNC(=N)N)NC(=O)[C@@H](Cc4c[nH]c5ccccc45)NC(=O)[C@H](Cc4c[nH]c5ccccc45)NC(=O)[C@H](Cc4c[nH]c5ccccc45)NC(=O)[C@H](Cc4c[nH]c5ccccc45)NC(=O)[C@H](CCCNC(=N)N)NC3=O)c(=O)c3cc(F)c(F)c(c32)O1", "values": [{"measurement": "MIC", "setting": "[1]", "value": 32, "unit": "µg/mL"}, {"measurement": "MIC", "setting": "[2]", "value": 8, "unit": "µg/mL"}]}
{"compound": "CCOc1cccc2cc(-c3cc4c(cc3F)c(=O)c(C(=O)O)cn4CC)c(=O)oc12", "values": [{"measurement": "MIC", "setting": "[3]", "value": 1.5, "unit": "µg/mL"}, {"measurement": "MIC", "setting": "[4]", "value": 1.5, "unit": "µg/mL"}, {"measurement": "MIC", "setting": "[5]", "value": 0.7, "unit": "µg/mL"}]}
{"compound": "CCCCCOC(=O)c1cn(C2CC2)c2cc(N3CCNCC3)c(F)cc2c1=O", "values": [{"measurement": "inhibition (INH)", "setting": "[6]", "value": ">60", "unit": "%"}]}
{"compound": "CCCCCCCCOC(=O)c1cn(C2CC2)c2cc(N3CCNCC3)c(F)cc2c1=O", "values": [{"measurement": "inhibition (INH)", "setting": "[6]", "value": ">60", "unit": "%"}]}
{"compound": "O=C(O)c1cn(C2CC2)c2cc(N3CCN(Cn4nc(CN5CCN(c6ccc([N+](=O)[O-])cc6)CC5)oc4=S)CC3)c(F)cc2c1=O", "values": [{"measurement": "MIC", "setting": "[7]", "value": 0.03, "unit": "µg/mL"}, {"measurement": "MIC", "setting": "[8]", "value": 0.03, "unit": "µg/mL"}, {"measurement": "MIC", "setting": "[9]", "value": 0.03, "unit": "µg/mL"}, {"measurement": "MIC", "setting": "[10]", "value": 0.03, "unit": "µg/mL"}, {"measurement": "MIC", "setting": "[11]", "value": 0.03, "unit": "µg/mL"}, {"measurement": "MIC", "setting": "[12]", "value": 0.03, "unit": "µg/mL"}, {"measurement": "MIC", "setting": "[13]", "value": 0.03, "unit": "µg/mL"}]}
{"compound": "C[C@H]1Cn2cc(C(=O)NCCC(=O)NCCCCC[C@@H](N)C(=O)N[C@@H](CCCNC(=N)N)C(=O)N[C@@H](CCCNC(=N)N)C(=O)N[C@@H](CCCNC(=N)N)C(=O)N[C@@H](CCCNC(=N)N)C(=O)N[C@@H](Cc3c[nH]c4ccccc34)C(=O)N[C@@H](CCCNC(=N)N)C(=O)N[C@@H](Cc3c[nH]c4ccccc34)C(=O)N[C@@H](Cc3c[nH]c4ccccc34)C(=O)O)c(=O)c3cc(F)c(N4CCN(C)CC4)c(c32)O1", "values": [{"measurement": "MIC", "setting": "[1]", "value": "> 128", "unit": "µg/mL"}, {"measurement": "MIC", "setting": "[2]", "value": 64, "unit": "µg/mL"}]}
{"compound": "COc1c(N2CCN(C)CC2)c(F)cc2c(=O)c(C(=O)N/N=C\\c3c(Cl)cccc3Cl)cn(C3CC3)c12", "values": [{"measurement": "IC50", "setting": "[14]", "value": 4.9, "unit": "µg/mL"}, {"measurement": "MIC", "setting": "[15]", "value": 27, "unit": "µM"}, {"measurement": "inhibition zone (IZ)", "setting": "[16]", "value": 9, "unit": "mm"}]}
{"compound": "COc1c(N2CCN(C)CC2)c(F)cc2c(=O)c(C(=O)N/N=C\\c3cccc(C)c3)cn(C3CC3)c12", "values": [{"measurement": "IC50", "setting": "[14]", "value": 10, "unit": "µg/mL"}, {"measurement": "inhibition zone (IZ)", "setting": "[17]", "value": 11, "unit": "mm"}, {"measurement": "MIC", "setting": "[15]", "value": 42.5, "unit": "µM"}, {"measurement": "inhibition zone (IZ)", "setting": "[16]", "value": 10, "unit": "mm"}]}
{"compound": "CCn1c(CN2CCN(c3ccc([N+](=O)[O-])cc3)CC2)nn(CN2CCN(c3cc4c(cc3F)c(=O)c(C(=O)O)cn4CC)CC2)c1=S", "values": [{"measurement": "MIC", "setting": "[7]", "value": 0.25, "unit": "µg/mL"}, {"measurement": "MIC", "setting": "[8]", "value": "0.25 to 0.5", "unit": "µg/mL"}, {"measurement": "MIC", "setting": "[9]", "value": 0.122, "unit": "µg/mL"}, {"measurement": "MIC", "setting": "[10]", "value": 0.244, "unit": "µg/mL"}, {"measurement": "MIC", "setting": "[11]", "value": "0.25 to 0.99", "unit": "µg/mL"}, {"measurement": "MIC", "setting": "[12]", "value": "0.122 to 0.25", "unit": "µg/mL"}, {"measurement": "MIC", "setting": "[13]", "value": "≤ 0.03", "unit": "µg/mL"}]}
{"compound": "COc1c(N2CCN(C)CC2)c(F)cc2c(=O)c(C(=O)N/N=C\\c3cccc(O)c3)cn(C3CC3)c12", "values": [{"measurement": "IC50", "setting": "[14]", "value": 3.4, "unit": "µg/mL"}, {"measurement": "MIC", "setting": "[15]", "value": 27.2, "unit": "µM"}]}
{"compound": "O=C(O)c1cn(C2CC2)c2cc(N3CCN(C(=O)c4ccccc4)CC3)c(F)cc2c1=O", "values": [{"measurement": "MIC", "setting": "[18]", "value": 1, "unit": "µg/mL"}, {"measurement": "MIC", "setting": "[19]", "value": 2, "unit": "µg/mL"}]}
{"compound": "CCCOC(=O)c1cn(C2CC2)c2cc(N3CCNCC3)c(F)cc2c1=O", "values": [{"measurement": "inhibition (INH)", "setting": "[6]", "value": ">60", "unit": "%"}]}
{"compound": "O=C(NO)c1cn(C2CC2)c2cc(-n3cc(CN4CCCCC4)nn3)c(F)cc2c1=O", "values": [{"measurement": "MIC", "setting": "[20]", "value": 64, "unit": "µg/mL"}, {"measurement": "MIC", "setting": "[21]", "value": 64, "unit": "µg/mL"}, {"measurement": "inhibition of growth at 10 µM", "setting": "[22]", "value": 20, "unit": "%"}, {"measurement": "inhibition of growth at 10 µM", "setting": "[23]", "value": 5, "unit": "%"}, {"measurement": "inhibition of growth at 10 µM", "setting": "[24]", "value": 10, "unit": "%"}, {"measurement": "MIC", "setting": "[25]", "value": "> 64", "unit": "µg/mL"}, {"measurement": "MIC", "setting": "[26]", "value": "> 64", "unit": "µg/mL"}, {"measurement": "inhibition of growth at 10 µM", "setting": "[27]", "value": 10, "unit": "%"}, {"measurement": "MIC", "setting": "[28]", "value": 64, "unit": "µg/mL"}, {"measurement": "MIC", "setting": "[29]", "value": "> 64", "unit": "µg/mL"}]}
